Data: patent US6934639B1, “Methods for designing agents that interact with MMP-13” (Wyeth, priority 2000, dated 2005)

Key:
Type in all cases: biochemical
[1] = target: TACE (Homo sapiens, UniProt P78536); test: TACE enzyme inhibition (IC50)
[2] = target: MMP-13 (Homo sapiens, UniProt P45452); test: MMP-13 enzyme inhibition (IC50)
[3] = target: MMP-9 (Homo sapiens, UniProt P14780); test: MMP-9 enzyme inhibition (IC50)
[4] = target: T1, MMP-1 (Homo sapiens, UniProt P03956); test: MMP-1 enzyme inhibition (IC50)
T1 sequence (P03956 100-469): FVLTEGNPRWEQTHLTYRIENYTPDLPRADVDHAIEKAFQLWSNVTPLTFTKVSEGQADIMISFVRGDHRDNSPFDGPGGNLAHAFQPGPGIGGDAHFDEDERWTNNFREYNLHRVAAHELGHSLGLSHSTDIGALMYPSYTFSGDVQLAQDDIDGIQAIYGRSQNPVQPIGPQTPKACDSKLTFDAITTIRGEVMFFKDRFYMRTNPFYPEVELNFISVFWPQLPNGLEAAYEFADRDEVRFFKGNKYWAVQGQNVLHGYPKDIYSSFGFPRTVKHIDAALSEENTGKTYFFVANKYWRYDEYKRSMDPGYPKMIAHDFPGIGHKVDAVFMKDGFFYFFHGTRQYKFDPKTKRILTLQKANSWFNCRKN

Chain of TACE (P78536 215-824): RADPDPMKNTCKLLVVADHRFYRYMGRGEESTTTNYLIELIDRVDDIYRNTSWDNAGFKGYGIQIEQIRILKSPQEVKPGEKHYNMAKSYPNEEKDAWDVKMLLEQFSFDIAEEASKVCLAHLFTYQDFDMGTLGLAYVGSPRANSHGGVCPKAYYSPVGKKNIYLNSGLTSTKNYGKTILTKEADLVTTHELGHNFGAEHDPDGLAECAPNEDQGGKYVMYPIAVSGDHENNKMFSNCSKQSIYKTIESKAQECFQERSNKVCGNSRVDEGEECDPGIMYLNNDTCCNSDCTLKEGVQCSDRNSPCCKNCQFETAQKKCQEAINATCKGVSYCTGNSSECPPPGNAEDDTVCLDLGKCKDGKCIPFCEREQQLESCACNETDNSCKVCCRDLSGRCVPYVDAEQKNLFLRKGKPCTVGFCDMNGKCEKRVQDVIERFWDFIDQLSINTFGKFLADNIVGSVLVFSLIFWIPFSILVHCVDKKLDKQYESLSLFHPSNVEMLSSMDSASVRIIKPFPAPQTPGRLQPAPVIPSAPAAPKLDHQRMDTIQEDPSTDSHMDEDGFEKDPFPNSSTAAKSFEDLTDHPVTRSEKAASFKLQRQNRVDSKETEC
Chain of MMP-9 (P14780 94-707, species assumed): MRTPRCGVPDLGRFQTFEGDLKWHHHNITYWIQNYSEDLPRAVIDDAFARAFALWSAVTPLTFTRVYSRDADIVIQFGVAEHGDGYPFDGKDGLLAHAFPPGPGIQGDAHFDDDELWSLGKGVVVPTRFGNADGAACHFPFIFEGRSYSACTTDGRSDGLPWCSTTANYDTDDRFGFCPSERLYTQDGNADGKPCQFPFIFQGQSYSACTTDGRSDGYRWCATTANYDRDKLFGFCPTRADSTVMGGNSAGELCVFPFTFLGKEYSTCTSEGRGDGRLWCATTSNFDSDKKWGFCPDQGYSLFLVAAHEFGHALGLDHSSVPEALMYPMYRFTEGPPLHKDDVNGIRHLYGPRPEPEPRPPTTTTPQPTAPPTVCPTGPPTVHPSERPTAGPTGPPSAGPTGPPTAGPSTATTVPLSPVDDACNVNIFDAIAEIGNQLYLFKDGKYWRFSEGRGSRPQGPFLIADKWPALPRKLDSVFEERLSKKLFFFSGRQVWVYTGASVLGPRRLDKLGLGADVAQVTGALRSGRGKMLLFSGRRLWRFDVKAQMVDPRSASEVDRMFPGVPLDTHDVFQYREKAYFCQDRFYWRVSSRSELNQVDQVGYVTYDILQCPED

| Structure (SMILES) | IC50 [2] | IC50 [3] | IC50 [4] | IC50 [1] | further results |
| --- | --- | --- | --- | --- | --- |
| COc1ccc(S(=O)(=O)N(Cc2ccccc2)c2c(C)cc(C)cc2C(=O)NO)cc1 [Compound D, 2-[Benzyl-(4-methoxy-benzenesulfonyl)-amino]-N-hydroxy-3,5-dimethyl-benzamide] | – | – | – | 240 nM | – |
| COc1ccc(S(=O)(=O)N(Cc2cccnc2)c2c(C)cccc2C(=O)NO)cc1 [Compound A, N-Hydroxy-2-[(4-methoxy-benzenesulfonyl)-pyridin-3-ylmethyl-amino]-3-methyl-benzamide] | – | – | – | – | potency as inhibitor of MMP-13 [2]: low nanomolar |
| Cc1cc(C)c(N(Cc2ccccc2)S(=O)(=O)c2ccc(OCCNC(=O)c3cc4ccccc4o3)cc2)c(C(=O)NO)c1 [Compound E, Benzofuran-2-carboxylic acid (2-{4-[benzyl-(2-hydroxycarbamoyl-4,6-dimethyl-phenyl)-sulfamoyl]-phenoxy}-ethyl)-amide] | 17 nM | 945 nM | – | – | – |
| COc1ccc(S(=O)(=O)N(Cc2cccnc2)[C@@H](C(=O)NO)C(C)C)cc1 [CGS-27023A, reference compound] | – | – | – | – | potency as inhibitor of MMP-1 [4]: low nanomolar |

Second part, led by results:

| IC50 [2] | IC50 [3] | IC50 [4] | Structure (SMILES) | IC50 [1] | further results |
| --- | --- | --- | --- | --- | --- |
| 75 nM | 46 nM | 750 nM | Cc1cc(C)c(N(Cc2ccccc2)S(=O)(=O)c2ccc(OCCc3ccccc3)cc2)c(C(=O)NO)c1 [Compound C, 2-[Benzyl-(4-phenethyloxy-benzenesulfonyl)-amino]-N-hydroxy-3,5-dimethyl-benzamide] | – | – |
| 301 nM | 71 nM | 1020 nM | Cc1cc(C)c(N(Cc2ccccc2)S(=O)(=O)c2ccc(OCCCc3ccccc3)cc2)c(C(=O)NO)c1 [Compound F] | 664 nM | S-9: selectivity, ratio of MMP-9 IC50 with MMP-13 ([3]; MMP-9 IC50 / MMP-13 IC50): 0.2 x; S-1: selectivity, ratio of MMP-1 IC50 with MMP-13 ([4]; MMP-1 IC50 / MMP-13 IC50): 3.4 x; S-TACE: selectivity, ratio of TACE IC50 with MMP-13 ([1]; TACE IC50 / MMP-13 IC50): 2.2 x |
